Five molecules from patent publication EP0067666A1, “Salts of antimicrobial naphthyridine and quinoline compounds and their production” (priority 1981, dated 1982) can be followed below.

For one data set, the system named is Strep. pyogenes C-203. Nature of the data set: Antibacterial activity, MIC. The format is cell-based. Conditions: for MIC µg/ml Strep. pyogenes C-203: based on content of compound B.
The next data set has as its system Strep. faecalis MGH-2. Nature of the data set: Antibacterial activity, MIC. The format is cell-based. Conditions: for MIC µg/ml Strep. faecalis MGH-2: based on content of compound B.
For data set [1], the system named is Klebsiella pneumoniae MGH-2. Nature of the data set: Acute mouse protection test. Conditions: single dose given at time of challenge; for Single sc Dose PD50 (mg/kg) ± 95% Confidence Limits Klebsiella pneumoniae MGH-2: compound B series; for ED50: Klebsiella pneumoniae, compound A series. Format: in vivo.
The next data set has as its system Entero cloacae MA 2646. Put plainly: Antibacterial activity, MIC. The following applies: for MIC µg/ml Entero cloacae MA 2646: based on content of compound B. The format is cell-based.
The subject of a further data set is Strep. pneumoniae SV-1. Put plainly: Antibacterial activity, MIC. Conditions: for MIC µg/ml Strep. pneumoniae SV-1: based on content of compound B. The format is cell-based.
The next data set deals with Staph. aureus H 228. Nature of the data set: Antibacterial activity, MIC. Format: cell-based. Conditions: for MIC µg/ml Staph. aureus H 228: based on content of compound B.
In the next data set the test system is Klebs. pneumoniae MGH-2. Nature of the data set: Antibacterial activity, MIC. Format: cell-based. The following applies: for MIC µg/ml Klebs. pneumoniae MGH-2: based on content of compound B.
Another data set deals with E. coli Vogel. Put plainly: Antibacterial activity, MIC. Format: cell-based. The following applies: for MIC µg/ml E. coli Vogel: based on content of compound B.
The subject of the next data set is Escherichia coli Vogel. Nature of the data set: Acute mouse protection test. Conditions: single dose given at time of challenge; for Single po Dose PD50 (mg/kg) ± 95% Confidence Limits Escherichia coli Vogel / Single sc Dose PD50 (mg/kg) ± 95% Confidence Limits Escherichia coli Vogel: compound B series; for ED50: Escherichia coli, compound A series. Format: in vivo.

The test system of data set [2] is Staphylococcus aureus UC-76. Nature of the data set: Acute mouse protection test. The following applies: single dose given at time of challenge, compound B series; for Single sc Dose PD50 (mg/kg) ± 95% Confidence Limits Staphylococcus aureus UC-76: subcutaneous. Format: in vivo.
A further data set has as its system Pseudo. aeruginosa UI-18. Put plainly: Antibacterial activity, MIC. Format: cell-based.
The test system of the next data set is Proteus retgeri M 1771. Nature of the data set: Antibacterial activity, MIC. Format: cell-based. The following applies: for MIC µg/ml Proteus retgeri M 1771: based on content of compound B.
A further data set deals with Staph. aureus UC-76. Put plainly: Antibacterial activity, MIC. The format is cell-based. The following applies: for MIC µg/ml Staph. aureus UC-76: based on content of compound B.
Data set [3] is described as follows: Two-way crossover oral trial, drug blood levels by disk agar diffusion microbiological assay. The format is in vivo. Conditions: Beagle dogs, single 25 mg/kg (parent compound equivalent) oral dose in hard gelatine capsules; compound B compared with compound D as the glutamate. As to the method: Drug blood levels were determined by a disk agar diffusion microbiological assay.
A general note: A growth-free zone around the sample is the usual read-out of agar diffusion tests.

Values after ≈ are worked out from the molar mass of the structure shown. Read-outs that look alike come from different tables or passages of the source.

As usually defined, the MIC is the lowest concentration that inhibits growth of the organism. Read a low MIC as greater potency.

As to `CCn1cc(C(=O)O)c(=O)c2cc(F)c(N3CCNCC3)nc21` [B Aspartate], in the data set with Strep. pyogenes C-203, the “MIC µg/ml Strep. pyogenes C-203” value was 6.3 µg/mL (≈ 19.7 µM). Moreover, the “MIC µg/ml Strep. faecalis MGH-2” value with Strep. faecalis MGH-2 came out at 3.1 µg/mL (≈ 9.68 µM). Moreover, the “Single sc Dose PD50 (mg/kg) ± 95% Confidence Limits Klebsiella pneumoniae MGH-2” value in data set [1] (subcutaneous) was found to be 1.6 ± 0.6 mg/kg. In addition, the “MIC µg/ml Entero cloacae MA 2646” value in the data set on Entero cloacae MA 2646 amounted to 0.2 µg/mL (≈ 0.624 µM). For the same molecule, the “MIC µg/ml Strep. pneumoniae SV-1” value against Strep. pneumoniae SV-1 is 3.1 µg/mL (≈ 9.68 µM). Also, the “MIC µg/ml Staph. aureus H 228” value in the data set on Staph. aureus H 228 was 3.1 µg/mL (≈ 9.68 µM). In the data set with Klebs. pneumoniae MGH-2, the “MIC µg/ml Klebs. pneumoniae MGH-2” value stood at 0.1 µg/mL (≈ 0.312 µM). Besides, the “MIC µg/ml E. coli Vogel” value against E. coli Vogel is less than 0.1 µg/mL. In the data set with Escherichia coli Vogel, the “Single po Dose PD50 (mg/kg) ± 95% Confidence Limits Escherichia coli Vogel” value amounted to 2.9 ± 1.0 mg/kg. Also, the “Single sc Dose PD50 (mg/kg) ± 95% Confidence Limits Escherichia coli Vogel” value in the data set on Escherichia coli Vogel (subcutaneous) is listed as 1.3 ± 0.4 mg/kg. In data set [2], the “Single po Dose PD50 (mg/kg) ± 95% Confidence Limits Staphylococcus aureus UC-76” value was 13 ± 3.0 mg/kg and the “Single sc Dose PD50 (mg/kg) ± 95% Confidence Limits Staphylococcus aureus UC-76” value was 4.3 ± 1.4 mg/kg. The “MIC µg/ml Pseudo. aeruginosa UI-18” value with Pseudo. aeruginosa UI-18 (based on content of compound B) stood at 0.4 µg/mL (≈ 1.25 µM). Further, the “MIC µg/ml Proteus retgeri M 1771” value in the data set on Proteus retgeri M 1771 was less than 0.1 µg/mL. Moreover, the “MIC µg/ml Staph. aureus UC-76” value with Staph. aureus UC-76 worked out at 0.1 µg/mL (≈ 0.312 µM).

Consider `CCn1cc(C(=O)O)c(=O)c2cc(F)c(N3CCNCC3)nc21` [B Gluconate], for which, in the data set on Strep. pyogenes C-203, the “MIC µg/ml Strep. pyogenes C-203” value stood at 3.1 µg/mL. Besides, in the data set on Strep. faecalis MGH-2, the “MIC µg/ml Strep. faecalis MGH-2” value is 3.1 µg/mL. Also, the “Single sc Dose PD50 (mg/kg) ± 95% Confidence Limits Klebsiella pneumoniae MGH-2” value in data set [1] (subcutaneous) is 5.2 ± 1.5 mg/kg. Besides, the “MIC µg/ml Entero cloacae MA 2646” value with Entero cloacae MA 2646 was found to be 0.4 µg/mL. Further, the “MIC µg/ml Strep. pneumoniae SV-1” value against Strep. pneumoniae SV-1 came to 3.1 µg/mL. Also, the “MIC µg/ml Staph. aureus H 228” value in the data set with Staph. aureus H 228 turned out to be 1.6 µg/mL. Also, the “MIC µg/ml Klebs. pneumoniae MGH-2” value against Klebs. pneumoniae MGH-2 was 0.2 µg/mL. Moreover, the “MIC µg/ml E. coli Vogel” value against E. coli Vogel was determined as 0.1 µg/mL. The “Single po Dose PD50 (mg/kg) ± 95% Confidence Limits Escherichia coli Vogel” value with Escherichia coli Vogel came out at 2.9 ± 0.7 mg/kg. Moreover, the “Single sc Dose PD50 (mg/kg) ± 95% Confidence Limits Escherichia coli Vogel” value in the data set on Escherichia coli Vogel (subcutaneous) worked out at 1.1 ± 0.4 mg/kg. The “MIC µg/ml Pseudo. aeruginosa UI-18” value against Pseudo. aeruginosa UI-18 (based on content of compound B) turned out to be 0.8 µg/mL. Also, the “MIC µg/ml Proteus retgeri M 1771” value in the data set on Proteus retgeri M 1771 came to 0.2 µg/mL. Further, the “MIC µg/ml Staph. aureus UC-76” value against Staph. aureus UC-76 is 0.4 µg/mL.

As to `CCn1cc(C(=O)O)c(=O)c2cc(F)c(N3CCNCC3)nc21` [B Glutamate], the “MIC µg/ml Strep. pyogenes C-203” value in the data set with Strep. pyogenes C-203 was 6.3 µg/mL (≈ 19.7 µM). Moreover, the “MIC µg/ml Strep. faecalis MGH-2” value against Strep. faecalis MGH-2 came out at 3.1 µg/mL (≈ 9.68 µM). Moreover, the “Single sc Dose PD50 (mg/kg) ± 95% Confidence Limits Klebsiella pneumoniae MGH-2” value in [1] (subcutaneous) is given as 1.9 ± 0.9 mg/kg. Further, the “MIC µg/ml Entero cloacae MA 2646” value against Entero cloacae MA 2646 was found to be 0.2 µg/mL (≈ 0.624 µM). Besides, in the data set with Strep. pneumoniae SV-1, the “MIC µg/ml Strep. pneumoniae SV-1” value was determined as 3.1 µg/mL (≈ 9.68 µM). Besides, the “MIC µg/ml Staph. aureus H 228” value with Staph. aureus H 228 is 1.6 µg/mL (≈ 4.99 µM). Further, the “MIC µg/ml Klebs. pneumoniae MGH-2” value with Klebs. pneumoniae MGH-2 turned out to be 0.2 µg/mL (≈ 0.624 µM). Also, the “MIC µg/ml E. coli Vogel” value with E. coli Vogel was less than 0.1 µg/mL. The “Single po Dose PD50 (mg/kg) ± 95% Confidence Limits Escherichia coli Vogel” value in the data set with Escherichia coli Vogel is reported as 2.9 ± 1.0 mg/kg. Further, the “Single sc Dose PD50 (mg/kg) ± 95% Confidence Limits Escherichia coli Vogel” value in the data set with Escherichia coli Vogel (subcutaneous) came out at 1.6 ± 0.6 mg/kg. In data set [2], the “Single po Dose PD50 (mg/kg) ± 95% Confidence Limits Staphylococcus aureus UC-76” value worked out at 12.0 ± 3.0 mg/kg and the “Single sc Dose PD50 (mg/kg) ± 95% Confidence Limits Staphylococcus aureus UC-76” value was 2.8 ± 1.0 mg/kg. For the same molecule, the “MIC µg/ml Pseudo. aeruginosa UI-18” value in the data set with Pseudo. aeruginosa UI-18 (based on content of compound B) turned out to be 0.2 µg/mL (≈ 0.624 µM). In addition, the “MIC µg/ml Proteus retgeri M 1771” value in the data set on Proteus retgeri M 1771 turned out to be 0.1 µg/mL (≈ 0.312 µM). Besides, the “MIC µg/ml Staph. aureus UC-76” value in the data set on Staph. aureus UC-76 was less than 0.1 µg/mL.

For `CCn1cc(C(=O)O)c(=O)c2cc(F)c(N3CCNCC3)cc21` [Compound A, 1-ethyl-6-fluoro-1,4-dihydro-4-oxo-7-(1-piperazinyl)-3-quinolinecarboxylic acid, reference compound], the MIC with Strep. pyogenes C-203 (Streptococcus pyogenes, C203, based on content of compound A) was 0.8 µg/mL (≈ 2.51 µM); with Strep. faecalis MGH-2 (Enterococcus faecalis, MGH2, based on content of compound A) it was 1.6 µg/mL (≈ 5.01 µM); against Entero cloacae MA 2646 (based on content of compound A) it was less than 0.1 µg/mL; against Strep. pneumoniae SV-1 (Streptococcus pneumoniae, SV1, based on content of compound A) it was 0.8 µg/mL (≈ 2.51 µM); against Staph. aureus H 228 (Staphylococcus aureus, H228, based on content of compound A) it was 1.6 µg/mL (≈ 5.01 µM); with Klebs. pneumoniae MGH-2 (Klebsiella pneumoniae, MGH2, based on content of compound A), 0.2 µg/mL (≈ 0.626 µM). The MIC against E. coli Vogel (Escherichia coli, based on content of compound A) is 0.1 µg/mL (≈ 0.313 µM); in the data set on Proteus retgeri M 1771 (based on content of compound A), less than 0.1 µg/mL; with Staph. aureus UC-76 (Staphylococcus aureus, UC76, based on content of compound A), 0.1 µg/mL (≈ 0.313 µM). Also, the ED50 in [1] (MGH2, po, oral, read-out: Single po Dose PD50 (mg/kg) ± 95% Confidence Limits Klebsiella pneumoniae MGH-2) is 15 ± 3 mg/kg; in data set [1] (MGH2, sc, subcutaneous, read-out: Single sc Dose PD50 (mg/kg) ± 95% Confidence Limits Klebsiella pneumoniae MGH-2) it was 1.3 ± 0.3 mg/kg; in the data set on Escherichia coli Vogel (po, read-out: Single po Dose PD50 (mg/kg) ± 95% Confidence Limits Escherichia coli Vogel), 3.3 ± 0.5 mg/kg; in the data set on Escherichia coli Vogel (sc, subcutaneous, read-out: Single sc Dose PD50 (mg/kg) ± 95% Confidence Limits Escherichia coli Vogel), 0.5 ± 0.1 mg/kg. Besides, the “MIC µg/ml Pseudo. aeruginosa UI-18” value in the data set on Pseudo. aeruginosa UI-18 (based on content of compound A) was found to be 0.4 µg/mL (≈ 1.25 µM).

Consider `CCn1cc(C(=O)O)c(=O)c2cc(F)c(N3CCNCC3)nc21` [Compound B L-Glutamic, 1-Ethyl-6-fluoro-1,4-dihydro-4-oxo-7-(1-piperazinyl)-1,8-naphthyridine-3-carboxylic acid L-glutamate], for which, in [3], the drug half-life result is “no significant difference” and the peak blood level result is recorded as “no significant difference”.
